# According to ChEMBL document CHEMBL1150060, “Potent inhibitors of histamine release, two novel triterpenoids from the Okinawan marine sponge Penares incrustans” (J Nat Prod, 1992):
# Key:
# [1] = Cytotoxicity against rat peritoneal mast cells assessed as cell viability by trypan blue exclusion assay; format: cell-based; settings: read-out: Activity
# [2] = tested on: Mast cell; experiment: Inhibition of anti-IgE-induced histamine release in rat peritoneal mast cells; format: functional, cell-based
Compound,viability [1],Activity [2],IC50 [2]
CC(=O)O[C@H]1CC[C@]2(C)C3=C(CC[C@H]2C1(C)C)[C@]1(C(=O)O)CC[C@H]([C@H](C)CCC=C(C)C)[C@@]1(C)CC3 [ACETYLPENASTEROL],97%,Dose-dependent effect,10 µM
CC(C)=CCC[C@@H](C)[C@H]1CC[C@@]2(C(=O)O)C3=C(CC[C@]12C)[C@@]1(C)CCC(=O)C(C)(C)[C@@H]1CC3 [PENASTERONE],97%,Dose-dependent effect,1.5 µM
